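Method: 48-hour compound exposure of cells in 96-well plates, five concentrations, linear interpolation of endpoints. TGI denotes the concentration required for complete inhibition of growth.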
Legend:
Test in all cases: growth of human tumour cells (NCI), 48 h
786-0 renal = test system: 786-0 renal
A498 renal = test system: A498 renal
A549 NSCLC = test system: A549 NSCLC
ACHN renal = test system: ACHN renal
BT-549 breast = test system: BT-549 breast
CAKI-1 renal = test system: CAKI-1 renal
CCRF-CEM leukemia = test system: CCRF-CEM leukemia
COLO 205 colon = test system: COLO 205 colon
DU-145 prostate = test system: DU-145 prostate
EKVX NSCLC = test system: EKVX NSCLC
HCC-2998 colon = test system: HCC-2998 colon
HCT-116 colon = test system: HCT-116 colon
HCT-15 colon = test system: HCT-15 colon
HL-60(TB) leukemia = test system: HL-60(TB) leukemia
HOP-92 NSCLC = test system: HOP-92 NSCLC
IGROV1 ovarian = test system: IGROV1 ovarian
K-562 leukemia = test system: K-562 leukemia
KM12 colon = test system: KM12 colon
LOX IMVI melanoma = test system: LOX IMVI melanoma
M14 melanoma = test system: M14 melanoma
MALME-3M melanoma = test system: MALME-3M melanoma
MCF7 breast = test system: MCF7 breast
MDA-MB-231 breast = test system: MDA-MB-231 breast
MDA-MB-435 = test system: MDA-MB-435
MDA-N = test system: MDA-N
MOLT-4 leukemia = test system: MOLT-4 leukemia
NCI-H226 lung = test system: NCI-H226 lung
NCI-H23 lung = test system: NCI-H23 lung
NCI-H460 lung = test system: NCI-H460 lung
NCI-H522 lung = test system: NCI-H522 lung
NCI/ADR-RES ovarian = test system: NCI/ADR-RES ovarian
OVCAR-3 ovarian = test system: OVCAR-3 ovarian
OVCAR-4 ovarian = test system: OVCAR-4 ovarian
OVCAR-5 ovarian = test system: OVCAR-5 ovarian
OVCAR-8 ovarian = test system: OVCAR-8 ovarian
PC-3 prostate = test system: PC-3 prostate
RPMI-8226 leukemia = test system: RPMI-8226 leukemia
RXF 393 renal = test system: RXF 393 renal
SF-295 CNS = test system: SF-295 CNS
SF-539 CNS = test system: SF-539 CNS
SK-MEL-2 melanoma = test system: SK-MEL-2 melanoma
SK-MEL-28 melanoma = test system: SK-MEL-28 melanoma
SK-MEL-5 melanoma = test system: SK-MEL-5 melanoma
SK-OV-3 ovarian = test system: SK-OV-3 ovarian
SN12C renal = test system: SN12C renal
SNB-19 CNS = test system: SNB-19 CNS
SNB-75 CNS = test system: SNB-75 CNS
SR leukemia = test system: SR leukemia
SW-620 colon = test system: SW-620 colon
TK-10 renal = test system: TK-10 renal
U251 CNS = test system: U251 CNS
UACC-257 melanoma = test system: UACC-257 melanoma
UACC-62 melanoma = test system: UACC-62 melanoma
UO-31 renal = test system: UO-31 renal
HOP-62 NSCLC = test system: HOP-62 NSCLC
HS 578T breast = test system: HS 578T breast
HT29 colon = test system: HT29 colon
SF-268 CNS = test system: SF-268 CNS
T-47D breast = test system: T-47D breast

C=C1c2nc3ccccc3n2C=C(c2ccc(Cl)cc2)N1c1ccccc1
TGI (786-0 renal): 26 µM
TGI (A498 renal): > 100 µM
TGI (A549 NSCLC): 27.1 µM
TGI (ACHN renal): 24.8 µM
TGI (BT-549 breast): 18.8 µM
TGI (CAKI-1 renal): 39.4 µM
TGI (CCRF-CEM leukemia): > 100 µM
TGI (COLO 205 colon): > 100 µM
TGI (DU-145 prostate): > 100 µM
TGI (EKVX NSCLC): 45.2 µM
TGI (HCC-2998 colon): 26 µM
TGI (HCT-116 colon): 33.7 µM
TGI (HCT-15 colon): 24.5 µM
TGI (HL-60(TB) leukemia): > 100 µM
TGI (HOP-92 NSCLC): > 100 µM
TGI (IGROV1 ovarian): 22.1 µM
TGI (K-562 leukemia): > 100 µM
TGI (KM12 colon): 24.7 µM
TGI (LOX IMVI melanoma): > 100 µM
TGI (M14 melanoma): 36.4 µM
TGI (MALME-3M melanoma): 27 µM
TGI (MCF7 breast): 25.7 µM
TGI (MDA-MB-231 breast): > 100 µM
TGI (MDA-MB-435): > 100 µM
TGI (MDA-N): > 100 µM
TGI (MOLT-4 leukemia): > 100 µM
TGI (NCI-H226 lung): 3.72 µM
TGI (NCI-H23 lung): 23.9 µM
TGI (NCI-H460 lung): 24.9 µM
TGI (NCI-H522 lung): 18.5 µM
TGI (NCI/ADR-RES ovarian): 29.8 µM
TGI (OVCAR-3 ovarian): 38.5 µM
TGI (OVCAR-4 ovarian): 29.9 µM
TGI (OVCAR-5 ovarian): > 100 µM
TGI (OVCAR-8 ovarian): 23.7 µM
TGI (PC-3 prostate): > 100 µM
TGI (RPMI-8226 leukemia): > 100 µM
TGI (RXF 393 renal): 49.5 µM
TGI (SF-295 CNS): 24 µM
TGI (SF-539 CNS): 25.9 µM
TGI (SK-MEL-2 melanoma): > 100 µM
TGI (SK-MEL-28 melanoma): 24 µM
TGI (SK-MEL-5 melanoma): > 100 µM
TGI (SK-OV-3 ovarian): 34.7 µM
TGI (SN12C renal): > 100 µM
TGI (SNB-19 CNS): 19.6 µM
TGI (SNB-75 CNS): 15.9 µM
TGI (SR leukemia): > 100 µM
TGI (SW-620 colon): > 100 µM
TGI (TK-10 renal): 24.8 µM
TGI (U251 CNS): 44.8 µM
TGI (UACC-257 melanoma): 63 µM
TGI (UACC-62 melanoma): 66.2 µM
TGI (UO-31 renal): 32.9 µM

C[C@H](CC[C@@H](O)C(C)(C)O)[C@H]1CC[C@@]2(C)[C@@H]3CC=C4[C@@H](CC[C@H](OC5OC(CO)C(O)C(O)C5O)C4(C)C)[C@]3(C)C(=O)C[C@]12C (stereo partly drawn)
TGI (786-0 renal): 70.5 µM
TGI (A498 renal): > 100 µM
TGI (A549 NSCLC): > 100 µM
TGI (ACHN renal): 98.5 µM
TGI (BT-549 breast): > 100 µM
TGI (CAKI-1 renal): > 100 µM
TGI (CCRF-CEM leukemia): 70.9 µM
TGI (COLO 205 colon): > 100 µM
TGI (DU-145 prostate): > 100 µM
TGI (EKVX NSCLC): > 100 µM
TGI (HCC-2998 colon): > 100 µM
TGI (HCT-116 colon): > 100 µM
TGI (HCT-15 colon): > 100 µM
TGI (HL-60(TB) leukemia): 75.8 µM
TGI (HOP-62 NSCLC): > 100 µM
TGI (HOP-92 NSCLC): > 100 µM
TGI (HS 578T breast): > 100 µM
TGI (HT29 colon): > 100 µM
TGI (IGROV1 ovarian): 44.3 µM
TGI (K-562 leukemia): > 100 µM
TGI (KM12 colon): > 100 µM
TGI (LOX IMVI melanoma): > 100 µM
TGI (M14 melanoma): 92.1 µM
TGI (MALME-3M melanoma): > 100 µM
TGI (MCF7 breast): > 100 µM
TGI (MDA-MB-231 breast): > 100 µM
TGI (MDA-MB-435): > 100 µM
TGI (MDA-N): > 100 µM
TGI (MOLT-4 leukemia): > 100 µM
TGI (NCI-H226 lung): > 100 µM
TGI (NCI-H23 lung): > 100 µM
TGI (NCI-H460 lung): > 100 µM
TGI (NCI-H522 lung): > 100 µM
TGI (NCI/ADR-RES ovarian): > 100 µM
TGI (OVCAR-3 ovarian): > 100 µM
TGI (OVCAR-4 ovarian): > 100 µM
TGI (OVCAR-5 ovarian): > 100 µM
TGI (OVCAR-8 ovarian): > 100 µM
TGI (PC-3 prostate): > 100 µM
TGI (RXF 393 renal): > 100 µM
TGI (SF-268 CNS): > 100 µM
TGI (SF-295 CNS): > 100 µM
TGI (SF-539 CNS): > 100 µM
TGI (SK-MEL-2 melanoma): 69.6 µM
TGI (SK-MEL-28 melanoma): 77.8 µM
TGI (SK-MEL-5 melanoma): > 100 µM
TGI (SK-OV-3 ovarian): > 100 µM
TGI (SN12C renal): > 100 µM
TGI (SNB-19 CNS): > 100 µM
TGI (SNB-75 CNS): > 100 µM
TGI (SW-620 colon): > 100 µM
TGI (T-47D breast): > 100 µM
TGI (TK-10 renal): > 100 µM
TGI (U251 CNS): > 100 µM
TGI (UACC-257 melanoma): > 100 µM
TGI (UACC-62 melanoma): > 100 µM
TGI (UO-31 renal): > 100 µM

COc1cc(N(C)C)ccc1/C=c1/c2ccccc2n2c1cc(-c1ccccc1)[n+]2C
TGI (786-0 renal): 1.22 µM
TGI (A498 renal): 6.76 µM
TGI (A549 NSCLC): 1.38 µM
TGI (ACHN renal): 1.31 µM
TGI (BT-549 breast): 1.18 µM
TGI (CAKI-1 renal): 2.33 µM
TGI (CCRF-CEM leukemia): 1.55 µM
TGI (COLO 205 colon): 0.37 µM
TGI (DU-145 prostate): 1.26 µM
TGI (EKVX NSCLC): 2.21 µM
TGI (HCC-2998 colon): 1.76 µM
TGI (HL-60(TB) leukemia): 1.26 µM
TGI (HOP-62 NSCLC): 1.03 µM
TGI (K-562 leukemia): > 100 µM
TGI (KM12 colon): 0.418 µM
TGI (M14 melanoma): 1.45 µM
TGI (MDA-MB-435): 1.32 µM
TGI (MDA-N): 1.26 µM
TGI (NCI-H226 lung): 2.11 µM
TGI (NCI-H460 lung): 1.23 µM
TGI (NCI/ADR-RES ovarian): > 100 µM
TGI (OVCAR-3 ovarian): 1.4 µM
TGI (OVCAR-4 ovarian): 2.02 µM
TGI (PC-3 prostate): 1.1 µM
TGI (RPMI-8226 leukemia): 1.3 µM
TGI (RXF 393 renal): 1.37 µM
TGI (SF-295 CNS): 1.49 µM
TGI (SF-539 CNS): 0.873 µM
TGI (SK-MEL-2 melanoma): 2.03 µM
TGI (SK-MEL-28 melanoma): 2.04 µM
TGI (SK-OV-3 ovarian): 1.44 µM
TGI (SNB-19 CNS): 1.58 µM
TGI (SNB-75 CNS): 1.16 µM
TGI (SW-620 colon): 2.02 µM
TGI (TK-10 renal): 1.83 µM
TGI (UACC-257 melanoma): 1.66 µM

O=C(NN=C1CCCCC1)Nc1ccccc1Cl
TGI (786-0 renal): > 100 µM
TGI (A549 NSCLC): > 100 µM
TGI (ACHN renal): > 100 µM
TGI (BT-549 breast): > 100 µM
TGI (CAKI-1 renal): > 100 µM
TGI (CCRF-CEM leukemia): > 100 µM
TGI (COLO 205 colon): > 100 µM
TGI (DU-145 prostate): > 100 µM
TGI (EKVX NSCLC): > 100 µM
TGI (HCC-2998 colon): > 100 µM
TGI (HCT-116 colon): > 100 µM
TGI (HCT-15 colon): > 100 µM
TGI (HL-60(TB) leukemia): > 100 µM
TGI (HOP-92 NSCLC): 94.3 µM
TGI (HS 578T breast): > 100 µM
TGI (HT29 colon): > 100 µM
TGI (IGROV1 ovarian): > 100 µM
TGI (K-562 leukemia): > 100 µM
TGI (KM12 colon): > 100 µM
TGI (LOX IMVI melanoma): > 100 µM
TGI (M14 melanoma): > 100 µM
TGI (MALME-3M melanoma): > 100 µM
TGI (MCF7 breast): > 100 µM
TGI (MDA-MB-231 breast): > 100 µM
TGI (MDA-MB-435): 47.5 µM
TGI (MDA-N): 39 µM
TGI (MOLT-4 leukemia): > 100 µM
TGI (NCI-H226 lung): > 100 µM
TGI (NCI-H23 lung): > 100 µM
TGI (NCI-H460 lung): > 100 µM
TGI (NCI-H522 lung): > 100 µM
TGI (NCI/ADR-RES ovarian): 63.9 µM
TGI (OVCAR-3 ovarian): 38.8 µM
TGI (OVCAR-4 ovarian): > 100 µM
TGI (OVCAR-5 ovarian): > 100 µM
TGI (OVCAR-8 ovarian): > 100 µM
TGI (PC-3 prostate): > 100 µM
TGI (RPMI-8226 leukemia): > 100 µM
TGI (SF-268 CNS): > 100 µM
TGI (SF-295 CNS): > 100 µM
TGI (SF-539 CNS): > 100 µM
TGI (SK-MEL-2 melanoma): 91.7 µM
TGI (SK-MEL-28 melanoma): > 100 µM
TGI (SK-MEL-5 melanoma): > 100 µM
TGI (SK-OV-3 ovarian): > 100 µM
TGI (SN12C renal): > 100 µM
TGI (SNB-19 CNS): > 100 µM
TGI (SNB-75 CNS): 29.6 µM
TGI (SR leukemia): > 100 µM
TGI (SW-620 colon): > 100 µM
TGI (T-47D breast): > 100 µM
TGI (TK-10 renal): > 100 µM
TGI (U251 CNS): > 100 µM
TGI (UACC-257 melanoma): > 100 µM
TGI (UACC-62 melanoma): > 100 µM
TGI (UO-31 renal): > 100 µM

Source: PubChem BioAssay (NCI)
